According to ChEMBL document CHEMBL1151433, “National and regional assessment of antimicrobial resistance among community-acquired respiratory tract pathogens identified in a 2005-2006 U.S. Faropenem surveillance study” (2007):
Converted amounts (≈) assume the structure as drawn.

Assays:
[1] = test system: Haemophilus influenzae; assay: Antibacterial activity against beta lactamase-negative Haemophilus influenzae […] isolated from respiratory tract infected patients assessed as susceptible isolates after 20 to 24 hrs by broth microdilution method; type: functional
[2] = test system: Streptococcus pneumoniae; assay: Antibacterial activity against penicillin-resistant Streptococcus pneumoniae ATCC 49619 isolated from respiratory tract infected patients after 20 to 24 hrs by broth microdilution method; type: functional
[3] = test system: Streptococcus pneumoniae; assay: Antibacterial activity against penicillin-intermediate Streptococcus pneumoniae ATCC 49619 isolated from respiratory tract infected patients assessed as susceptible isolates after 20 to 24 hrs by broth microdilution method; type: functional
[4] = test system: Moraxella catarrhalis; assay: Antibacterial activity against Moraxella catarrhalis isolated from respiratory tract infected patients after 20 to 24 hrs by broth microdilution method; type: functional
[5] = test system: Haemophilus influenzae; assay: Antibacterial activity against beta lactamase-positive Haemophilus influenzae […] isolated from respiratory tract infected patients assessed as resistant isolates after 20 to 24 hrs by broth microdilution method; type: functional, ATCC 49247
[6] = test system: Haemophilus influenzae; assay: Antibacterial activity against Haemophilus influenzae […] isolated from respiratory tract infected patients after 20 to 24 hrs by broth microdilution method; type: functional; conditions: ATCC 49247
[7] = test system: Streptococcus pneumoniae; assay: Antibacterial activity against Streptococcus pneumoniae ATCC 49619 isolated from respiratory tract infected patients after 20 to 24 hrs by broth microdilution method; type: functional
[8] = test system: Streptococcus pneumoniae; assay: Antibacterial activity against penicillin-susceptible Streptococcus pneumoniae ATCC 49619 isolated from respiratory tract infected patients after 20 to 24 hrs by broth microdilution method; type: functional
[9] = test system: Haemophilus influenzae; assay: Antibacterial activity against Haemophilus influenzae […] isolated from respiratory tract infected patients assessed as susceptible isolates after 20 to 24 hrs by broth microdilution method; type: functional, ATCC 49247
[10] = test system: Streptococcus pneumoniae; assay: Antibacterial activity against penicillin-susceptible Streptococcus pneumoniae ATCC 49619 isolated from respiratory tract infected patients assessed as susceptible isolates after 20 to 24 hrs by broth microdilution method; type: functional
[11] = test system: Haemophilus influenzae; assay: Antibacterial activity against beta lactamase-negative Haemophilus influenzae […] isolated from respiratory tract infected patients after 20 to 24 hrs by broth microdilution method; type: functional; conditions: ATCC 49247
[12] = test system: Streptococcus pneumoniae; assay: Antibacterial activity against Streptococcus pneumoniae ATCC 49619 isolated from respiratory tract infected patients assessed as resistant isolates after 20 to 24 hrs by broth microdilution method; type: functional
[13] = test system: Haemophilus influenzae; assay: Antibacterial activity against Haemophilus influenzae […] isolated from respiratory tract infected patients assessed as resistant isolates after 20 to 24 hrs by broth microdilution method; type: functional, ATCC 49247
[14] = test system: Streptococcus pneumoniae; assay: Antibacterial activity against penicillin-resistant Streptococcus pneumoniae ATCC 49619 isolated from respiratory tract infected patients assessed as susceptible isolates after 20 to 24 hrs by broth microdilution method; type: functional
[15] = test system: Streptococcus pneumoniae; assay: Antibacterial activity against penicillin-intermediate Streptococcus pneumoniae ATCC 49619 isolated from respiratory tract infected patients assessed as resistant isolates after 20 to 24 hrs by broth microdilution method; type: functional
[16] = test system: Streptococcus pneumoniae; assay: Antibacterial activity against Streptococcus pneumoniae ATCC 49619 isolated from respiratory tract infected patients assessed as susceptible isolates after 20 to 24 hrs by broth microdilution method; type: functional
[17] = test system: Streptococcus pneumoniae; assay: Antibacterial activity against penicillin-resistant Streptococcus pneumoniae ATCC 49619 isolated from respiratory tract infected patients assessed as resistant isolates after 20 to 24 hrs by broth microdilution method; type: functional
[18] = test system: Haemophilus influenzae; assay: Antibacterial activity against beta lactamase-negative Haemophilus influenzae […] isolated from respiratory tract infected patients assessed as resistant isolates after 20 to 24 hrs by broth microdilution method; type: functional, ATCC 49247
[19] = test system: Streptococcus pneumoniae; assay: Antibacterial activity against penicillin-intermediate Streptococcus pneumoniae ATCC 49619 isolated from respiratory tract infected patients after 20 to 24 hrs by broth microdilution method; type: functional
[20] = test system: Streptococcus pneumoniae; assay: Antibacterial activity against penicillin-susceptible Streptococcus pneumoniae ATCC 49619 isolated from respiratory tract infected patients assessed as resistant isolates after 20 to 24 hrs by broth microdilution method; type: functional
[21] = test system: Haemophilus influenzae; assay: Antibacterial activity against beta lactamase-positive Haemophilus influenzae […] isolated from respiratory tract infected patients after 20 to 24 hrs by broth microdilution method; type: functional; conditions: ATCC 49247
[22] = test system: Haemophilus influenzae; assay: Antibacterial activity against beta lactamase-positive Haemophilus influenzae […] isolated from respiratory tract infected patients assessed as susceptible isolates after 20 to 24 hrs by broth microdilution method; type: functional, ATCC 49247
[23] = test system: Streptococcus pneumoniae; assay: Antibacterial activity against Streptococcus pneumoniae ATCC 49619 isolated from respiratory tract infected female patients assessed as resistant isolates after 20 to 24 hrs by broth microdilution method; type: functional
[24] = test system: Streptococcus pneumoniae; assay: Antibacterial activity against Streptococcus pneumoniae ATCC 49619 isolated from respiratory tract infected female patients after 20 to 24 hrs by broth microdilution method; type: functional
[25] = test system: Streptococcus pneumoniae; assay: Antibacterial activity against Streptococcus pneumoniae ATCC 49619 isolated from respiratory tract infected patients with 6 to 14 years of age assessed as resistant isolates after 20 to 24 hrs by broth microdilution method; type: functional
[26] = test system: Streptococcus pneumoniae; assay: Antibacterial activity against Streptococcus pneumoniae ATCC 49619 isolated from respiratory tract infected patients with 15 to 64 years of age after 20 to 24 hrs by broth microdilution method; type: functional
[27] = test system: Streptococcus pneumoniae; assay: Antibacterial activity against Streptococcus pneumoniae ATCC 49619 isolated from respiratory tract infected patients more than 65 years of age assessed as resistant isolates after 20 to 24 hrs by broth microdilution method; type: functional
[28] = test system: Streptococcus pneumoniae; assay: Antibacterial activity against Streptococcus pneumoniae ATCC 49619 isolated from respiratory tract infected inpatients assessed as resistant isolates after 20 to 24 hrs by broth microdilution method; type: functional
[29] = test system: Streptococcus pneumoniae; assay: Antibacterial activity against Streptococcus pneumoniae ATCC 49619 isolated from respiratory tract infected patients with 6 to 14 years of age after 20 to 24 hrs by broth microdilution method; type: functional
[30] = test system: Streptococcus pneumoniae; assay: Antibacterial activity against Streptococcus pneumoniae ATCC 49619 isolated from respiratory tract infected patients with 15 to 64 years of age assessed as resistant isolates after 20 to 24 hrs by broth microdilution method; type: functional
[31] = test system: Streptococcus pneumoniae; assay: Antibacterial activity against Streptococcus pneumoniae ATCC 49619 isolated from respiratory tract infected male patients assessed as resistant isolates after 20 to 24 hrs by broth microdilution method; type: functional
[32] = test system: Streptococcus pneumoniae; assay: Antibacterial activity against Streptococcus pneumoniae ATCC 49619 isolated from respiratory tract infected patients with 3 to 5 years of age after 20 to 24 hrs by broth microdilution method; type: functional
[33] = test system: Streptococcus pneumoniae; assay: Antibacterial activity against Streptococcus pneumoniae ATCC 49619 isolated from respiratory tract infected patients within 2 years of age assessed as resistant isolates after 20 to 24 hrs by broth microdilution method; type: functional
[34] = test system: Streptococcus pneumoniae; assay: Antibacterial activity against Streptococcus pneumoniae ATCC 49619 isolated from respiratory tract infected inpatients after 20 to 24 hrs by broth microdilution method; type: functional
[35] = test system: Streptococcus pneumoniae; assay: Antibacterial activity against Streptococcus pneumoniae ATCC 49619 isolated from respiratory tract infected patients more than 65 years of age after 20 to 24 hrs by broth microdilution method; type: functional
[36] = test system: Streptococcus pneumoniae; assay: Antibacterial activity against Streptococcus pneumoniae ATCC 49619 isolated from respiratory tract infected patients with 3 to 5 years of age assessed as resistant isolates after 20 to 24 hrs by broth microdilution method; type: functional
[37] = test system: Streptococcus pneumoniae; assay: Antibacterial activity against Streptococcus pneumoniae ATCC 49619 isolated from respiratory tract infected outpatients assessed as resistant isolates after 20 to 24 hrs by broth microdilution method; type: functional
[38] = test system: Streptococcus pneumoniae; assay: Antibacterial activity against Streptococcus pneumoniae ATCC 49619 isolated from respiratory tract infected outpatients after 20 to 24 hrs by broth microdilution method; type: functional
[39] = test system: Streptococcus pneumoniae; assay: Antibacterial activity against Streptococcus pneumoniae ATCC 49619 isolated from respiratory tract infected male patients after 20 to 24 hrs by broth microdilution method; type: functional
[40] = test system: Streptococcus pneumoniae; assay: Antibacterial activity against Streptococcus pneumoniae ATCC 49619 isolated from respiratory tract infected patients within 2 years of age after 20 to 24 hrs by broth microdilution method; type: functional

`CC[C@H]1OC(=O)[C@H](C)C(=O)[C@H](C)[C@@H](O[C@@H]2O[C@H](C)C[C@H](N(C)C)[C@H]2O)[C@](C)(OC)C[C@@H](C)C(=O)[C@H](C)[C@H]2N(CCCCn3cnc(-c4cccnc4)c3)C(=O)O[C@]12C` [TELITHROMYCIN] was tested, and the Activity [1] was 96.1%, the MIC50 [2] was 0.5 µg/mL (≈ 0.616 µM) and the MIC90 [2] was 1 µg/mL (≈ 1.23 µM). It also gave an Activity [3] of 100%, an MIC50 [4] of no more than 0.12 µg/mL and an MIC90 [4] of no more than 0.12 µg/mL. For the same molecule, the Activity [5] was 0.8%, the MIC50 [6] was 2 µg/mL (≈ 2.46 µM) and the MIC90 [6] was 4 µg/mL (≈ 4.93 µM). It also gave an MIC50 [7] of no more than 0.12 µg/mL, an MIC90 [7] of 0.5 µg/mL (≈ 0.616 µM) and an MIC50 [8] of no more than 0.12 µg/mL. For the same molecule, the MIC90 [8] was no more than 0.12 µg/mL, the Activity [9] was 96.4% and the Activity [10] was 99.8%. For the same molecule, the MIC50 [11] was 2 µg/mL (≈ 2.46 µM), the MIC90 [11] was 4 µg/mL (≈ 4.93 µM) and the Activity [12] was 0.1%. The Activity [13] was 0.7%, the Activity [14] was 97.2% and the Activity [15] was 0%. It also gave an Activity [16] of 99.4%, an Activity [17] of 0% and an Activity [18] of 0.7%. The MIC50 [19] was no more than 0.12 µg/mL, the MIC90 [19] was 0.5 µg/mL (≈ 0.616 µM) and the Activity [20] was 0.1%. It also gave an MIC50 [21] of 2 µg/mL (≈ 2.46 µM), an MIC90 [21] of 4 µg/mL (≈ 4.93 µM) and an Activity [22] of 97%.
With `CO/N=C(\C(=O)N[C@@H]1C(=O)N2C(C(=O)O)=C(COC(N)=O)CS[C@H]12)c1ccco1` [CEFUROXIME] the Activity [1] was 98%, the MIC50 [2] was 8 µg/mL (≈ 18.9 µM) and the MIC90 [2] was 16 µg/mL (≈ 37.7 µM). The Activity [3] was 74%, the MIC50 [4] was 1 µg/mL (≈ 2.36 µM) and the MIC90 [4] was 2 µg/mL (≈ 4.71 µM). For the same molecule, the Activity [5] was 0.7%, the MIC50 [6] was 1 µg/mL (≈ 2.36 µM) and the MIC90 [6] was 2 µg/mL (≈ 4.71 µM). For the same molecule, the MIC50 [7] was no more than 0.5 µg/mL, the MIC90 [7] was 8 µg/mL (≈ 18.9 µM) and the MIC50 [8] was no more than 0.5 µg/mL. It also gave an MIC90 [8] of no more than 0.5 µg/mL, an Activity [9] of 97.6% and an Activity [10] of 99.9%. It also gave an MIC50 [11] of 1 µg/mL (≈ 2.36 µM), an MIC90 [11] of 2 µg/mL (≈ 4.71 µM) and an Activity [12] of 18.7%. The Activity [13] was 0.3%, the Activity [14] was 0% and the Activity [15] was 12.7%. For the same molecule, the Activity [16] was 78.2%, the Activity [17] was 99.2% and the Activity [18] was 0.2%. The MIC50 [19] was no more than 0.5 µg/mL, the MIC90 [19] was 4 µg/mL (≈ 9.43 µM) and the Activity [20] was 0%. It also gave an MIC50 [21] of 1 µg/mL (≈ 2.36 µM), an MIC90 [21] of 2 µg/mL (≈ 4.71 µM) and an Activity [22] of 96.3%.
`C[C@H]1COc2c(N3CCN(C)CC3)c(F)cc3c(=O)c(C(=O)O)cn1c23.C[C@H]1COc2c(N3CCN(C)CC3)c(F)cc3c(=O)c(C(=O)O)cn1c23.O` [LEVOFLOXACIN] was tested, and the Activity [1] was 99.7%, the MIC50 [2] was 1 µg/mL and the MIC90 [2] was 1 µg/mL. The Activity [3] was 98.8%, the Activity [23] was 0.3% and the MIC90 [24] was 1 µg/mL. The Activity [25] was 0%, the MIC50 [4] was no more than 0.06 µg/mL and the MIC90 [4] was no more than 0.06 µg/mL. The MIC50 [6] was no more than 0.06 µg/mL, the MIC90 [6] was no more than 0.06 µg/mL and the MIC90 [26] was 1 µg/mL. For the same molecule, the MIC50 [7] was 1 µg/mL, the MIC90 [7] was 1 µg/mL and the Activity [27] was 1.4%. It also gave an Activity [28] of 0.1%, an MIC50 [8] of 1 µg/mL and an MIC90 [8] of 1 µg/mL. It also gave an MIC90 [29] of 1 µg/mL, an Activity [30] of 0.4% and an Activity [9] of 99.9%. For the same molecule, the Activity [31] was 0.8%, the Activity [10] was 99.7% and the MIC50 [11] was no more than 0.06 µg/mL. The MIC90 [11] was no more than 0.06 µg/mL, the MIC90 [32] was 1 µg/mL and the Activity [33] was 0%. The Activity [12] was 0.6%, the MIC90 [34] was 1 µg/mL and the MIC90 [35] was 1 µg/mL. It also gave an Activity [14] of 98%, an Activity [15] of 0.9% and an Activity [16] of 99.2%. It also gave an Activity [36] of 0%, an Activity [17] of 1.6% and an Activity [37] of 0.9%. For the same molecule, the MIC50 [19] was 1 µg/mL, the MIC90 [19] was 1 µg/mL and the Activity [20] was 0.2%. It also gave an MIC90 [38] of 1 µg/mL, an MIC50 [21] of no more than 0.06 µg/mL and an MIC90 [21] of no more than 0.06 µg/mL. The MIC90 [39] was 1 µg/mL, the MIC90 [40] was 1 µg/mL and the Activity [22] was 100%.
